Data set [1] deals with PC-3. The experiment in a line: Cytotoxicity against human PC3 cells measured on day 3 by MTT assay. Type of data set: functional, cell-based. On the technique in general: Tetrazolium assays rely on reduction of a dye to a coloured formazan, in cell work by metabolically active cells.
In data set [2] the test system is PC-3. The experiment in a line: Cytotoxicity against human PC3 cells measured on day 7 by MTT assay. Type of data set: functional, cell-based.
Data set [3] concerns PC-3. The experiment in a line: Cytotoxicity against human PC3 cells measured on day 5 by MTT assay. It is filed as functional, cell-based.
The nature of data set [4]: Chemical stability of the compound in phosphate buffer up to 48 hrs at pH 6.5 by HPLC analysis. Type of data set: physicochemical. As to conditions: pH 6.5, 48 h.
A short description of data set [5]: Chemical stability of the compound in phosphate buffer up to 48 hrs at pH 5.5 by HPLC analysis. As to conditions: pH 5.5, 48 h. Type of data set: physicochemical.
Another data set deals with LNCaP. The data set is described as follows: Cytotoxicity against human LNCAP cells measured on day 7 by MTT assay. It is filed as functional, cell-based.
The nature of data set [6]: Prodrug activation in phosphate buffer assessed as emetine formation up to 48 hrs at pH 5.5 by HPLC analysis. As to conditions: pH 5.5, 48 h.
Data set [7] in a line: Chemical stability of the compound in phosphate buffer up to 5 days at pH 7.4 by HPLC analysis. Type of data set: physicochemical. Particulars: for Stability: buffer, pH 7.4, 120 h; for remaining at 120 h: phosphate buffer, pH 7.4, read-out: Stability.

Active and inactive are the calls of the source. No cut-off for these calls is given here. Where only a bound is given, the exact number is not on record here.

Usually IC50 stands for the concentration that inhibits the measured activity by half. On to `CC[C@H]1CN2CCc3cc(OC)c(OC)cc3[C@@H]2C[C@@H]1C[C@@H]1c2cc(OC)c(OC)cc2CCN1C(=S)NCc1ccccc1`, for which the result in the data set on PC-3 [1] and in the data set with PC-3 [3] was Active. The IC50 in the data set with PC-3 [2] (Homo sapiens, PC-3, 168 h) came out at 6.92 µM; with LNCaP (Homo sapiens, LNCaP, 168 h) it was 2.06 µM. Also, the Stability entry in data set [4] and in data set [5] was “Stable” throughout.

Turning to `CC[C@H]1CN2CCc3cc(OC)c(OC)cc3[C@@H]2C[C@@H]1C[C@@H]1c2cc(OC)c(OC)cc2CCN1S(=O)(=O)c1ccc(Cl)cc1`, the outcome with PC-3 [1] and with PC-3 [3] was Active. In addition, the 50% inhibitory concentration (IC50) was 4.21 µM in the data set on PC-3 [2] (Homo sapiens, PC-3, 168 h) and 2.69 µM with LNCaP (Homo sapiens, LNCaP, 168 h). Besides, the Stability result in data set [4] and in data set [5] was “Stable” in each case.

With `CC[C@H]1CN2CCc3cc(OC)c(OC)cc3[C@@H]2C[C@@H]1C[C@@H]1c2cc(OC)c(OC)cc2CCN1C(=O)/C=C(/C)C(=O)O` [listing 1 of 2 here], the IC50 came to 0.378 µM in the data set on PC-3 [2] (pc-3) and 0.368 µM in the data set on LNCaP (lncap). Besides, the Drug metabolism entry in data set [6] is listed as “Active”. The Stability in data set [7] is 100%.

Turning to `CC[C@H]1CN2CCc3cc(OC)c(OC)cc3[C@@H]2C[C@@H]1C[C@@H]1c2cc(OC)c(OC)cc2CCN1C(=S)SCc1ccccc1`, the result in the data set with PC-3 [1] and in the data set on PC-3 [3] was Active. Also, the IC50 with PC-3 [2] (Homo sapiens, PC-3, 168 h) amounted to 1.56 µM; in the data set with LNCaP (Homo sapiens, LNCaP, 168 h), 1.97 µM. For the same compound, the Stability result in data set [4] and in data set [5] was “Stable” in each case.

For `CC[C@H]1CN2CCc3cc(OC)c(OC)cc3[C@@H]2C[C@@H]1C[C@@H]1c2cc(OC)c(OC)cc2CCN1S(=O)(=O)c1ccc(OC)cc1`, the IC50 stood at 6.08 µM in the data set on PC-3 [2] (Homo sapiens, PC-3, 168 h) and 3.15 µM in the data set with LNCaP (Homo sapiens, LNCaP, 168 h). Further, in the data set with PC-3 [3], the result was Active. Moreover, the Stability result in data set [4] and in data set [5] was “Stable” throughout.

As to `CC[C@H]1CN2CCc3cc(OC)c(OC)cc3[C@@H]2C[C@@H]1C[C@@H]1c2cc(OC)c(OC)cc2CCN1C(=O)NCc1ccc(Cl)cc1`, the outcome in the data set with PC-3 [1] and with PC-3 [3] was Active. For the same compound, the IC50 was found to be 10 µM with PC-3 [2] (Homo sapiens, PC-3, 168 h) and 5.41 µM in the data set on LNCaP (Homo sapiens, LNCaP, 168 h). The Stability entry in data set [4] and in data set [5] was “Stable” throughout.

For the compound `CC[C@H]1CN2CCc3cc(OC)c(OC)cc3[C@@H]2C[C@@H]1C[C@@H]1c2cc(OC)c(OC)cc2CCN1C(=O)NCc1ccc(OC)cc1`, the outcome in the data set on PC-3 [1] and in the data set with PC-3 [3] was Active. In addition, the IC50 with PC-3 [2] (Homo sapiens, PC-3, 168 h) was determined as 3.67 µM; with LNCaP (Homo sapiens, LNCaP, 168 h) it was 7.84 µM. Moreover, the Stability result in data set [4] and in data set [5] was “Stable” each time.

With `CC[C@H]1CN2CCc3cc(OC)c(OC)cc3[C@@H]2C[C@@H]1C[C@@H]1c2cc(OC)c(OC)cc2CCN1C(=O)CCC(=O)O` [listing 1 of 2 here], the IC50 stood at 2.1 µM in the data set with PC-3 [2] (pc-3) and 2.41 µM with LNCaP (lncap).

On to `CC[C@H]1CN2CCc3cc(OC)c(OC)cc3[C@@H]2C[C@@H]1C[C@@H]1c2cc(OC)c(OC)cc2CCN1C(=O)NCc1ccccc1`, for which the result with PC-3 [1] and with PC-3 [3] was Active. In addition, the half-inhibitory concentration (IC50) with PC-3 [2] (Homo sapiens, PC-3, 168 h) was found to be 7.61 µM; in the data set on LNCaP (Homo sapiens, LNCaP, 168 h), 2.12 µM. Besides, the Stability result in data set [4] and in data set [5] was “Stable” each time.

Regarding `CC[C@H]1CN2CCc3cc(OC)c(OC)cc3[C@@H]2C[C@@H]1C[C@@H]1c2cc(OC)c(OC)cc2CCN1C(=O)CCC(=O)O` [listing 2 of 2 here], the IC50 with PC-3 [2] (Homo sapiens, PC-3, 168 h) was 2.15 µM; in the data set on LNCaP (Homo sapiens, LNCaP, 168 h) it was 2.45 µM.

As for `CC[C@H]1CN2CCc3cc(OC)c(OC)cc3[C@@H]2C[C@@H]1C[C@@H]1c2cc(OC)c(OC)cc2CCN1S(=O)(=O)c1ccccc1`, the IC50 in the data set on PC-3 [2] (Homo sapiens, PC-3, 168 h) is greater than 10 µM; in the data set on LNCaP (Homo sapiens, LNCaP, 168 h), 2.26 µM. Besides, the Stability entry in data set [4] and in data set [5] was “Stable” each time.

For the compound `CC[C@H]1CN2CCc3cc(OC)c(OC)cc3[C@@H]2C[C@@H]1C[C@@H]1c2cc(OC)c(OC)cc2CCN1C(=O)/C=C\C(=O)[O-].[Na+]`, the IC50 in the data set with PC-3 [2] (Homo sapiens, PC-3, 168 h) came to 7.71 µM; in the data set on LNCaP (Homo sapiens, LNCaP, 168 h), 8.9 µM. In addition, the Drug metabolism result in data set [6] was “Active”. Moreover, the remaining at 120 h in data set [7] was 100%.

Take `CC[C@H]1CN2CCc3cc(OC)c(OC)cc3[C@@H]2C[C@@H]1C[C@@H]1c2cc(OC)c(OC)cc2CCN1C(=S)NCc1ccc(OC)cc1`: the IC50 with PC-3 [2] (Homo sapiens, PC-3, 168 h) stood at 5 µM; in the data set on LNCaP (Homo sapiens, LNCaP, 168 h) it was 3.39 µM. For the same compound, the outcome in the data set with PC-3 [3] was Active. The Stability entry in data set [4] and in data set [5] was “Stable” in each case.

Consider `CC[C@H]1CN2CCc3cc(OC)c(OC)cc3[C@@H]2C[C@@H]1C[C@@H]1c2cc(OC)c(OC)cc2CCN1C(=O)/C=C(/CC(=O)[O-])C(=O)[O-].[Na+].[Na+]`, for which the result in the data set on PC-3 [1] and in the data set on PC-3 [3] was Active. The IC50 is 2.89 µM in the data set on PC-3 [2] (Homo sapiens, PC-3, 168 h) and 5.46 µM with LNCaP (Homo sapiens, LNCaP, 168 h). Further, the Drug metabolism result in data set [6] is on record as “Active”. For the same compound, in data set [7], the remaining at 120 h was determined as 100%.

For the compound `CC[C@H]1CN2CCc3cc(OC)c(OC)cc3[C@@H]2C[C@@H]1C[C@@H]1c2cc(OC)c(OC)cc2CCN1C(=O)/C=C\C(=O)O` [listing 1 of 2 here], the result with PC-3 [1] and with PC-3 [3] was Active.

Consider `CC[C@H]1CN2CCc3cc(OC)c(OC)cc3[C@@H]2C[C@@H]1C[C@@H]1c2cc(OC)c(OC)cc2CCN1C(=O)OCc1ccccc1`, for which the result in the data set with PC-3 [1] and in the data set with PC-3 [3] was Active. The IC50 in the data set with PC-3 [2] (Homo sapiens, PC-3, 168 h) came to 6.07 µM; with LNCaP (Homo sapiens, LNCaP, 168 h), 3.24 µM. Besides, the Stability result in data set [4] and in data set [5] was “Stable” throughout.

Consider `CC[C@H]1CN2CCc3cc(OC)c(OC)cc3[C@@H]2C[C@@H]1C[C@@H]1c2cc(OC)c(OC)cc2CCN1C(=S)NCc1ccc(Cl)cc1`, for which the result with PC-3 [1] and with PC-3 [3] was Active. For the same compound, the IC50 with PC-3 [2] (Homo sapiens, PC-3, 168 h) was 2.86 µM; with LNCaP (Homo sapiens, LNCaP, 168 h), 1.59 µM. Besides, the Stability result in data set [4] and in data set [5] was “Stable” each time.

In the case of `CC[C@H]1CN2CCc3cc(OC)c(OC)cc3[C@@H]2C[C@@H]1C[C@@H]1c2cc(OC)c(OC)cc2CCN1C(=O)/C=C(/C)C(=O)O` [listing 2 of 2 here], in the data set on PC-3 [3], the result was Active.

In the case of `CC[C@H]1CN2CCc3cc(OC)c(OC)cc3[C@@H]2C[C@@H]1C[C@@H]1c2cc(OC)c(OC)cc2CCN1C(=O)/C=C\C(=O)O` [listing 2 of 2 here], the IC50 with PC-3 [2] (pc-3) worked out at 5.04 µM; with LNCaP (lncap), 6.78 µM. In addition, the Drug metabolism result in data set [6] was “Active”. Besides, the Stability in data set [7] was determined as 100%.

For the origin of these results see ChEMBL document CHEMBL2169821, “Design, synthesis, and evaluation of pH-dependent hydrolyzable emetine analogues as treatment for prostate cancer” (J Med Chem, 2012).
